Assay results reported in patent publication US4540689A, “Penicillin derivative” (Kureha Kagaku Kogyo Kabushiki Kaisha, priority 1981, dated 1985).

Experiments:
Lactobacillus bifidus = assay: Effect on intestinal bacterial colonies, L. bifidus count in feces; format: in vivo; conditions: female ICR mice, oral 500 mg/kg/day for two days, first day after administration; before administration 8.4
Experimental: (§1) Effect of the present compounds on the intestinal bacterial colonies was examined.
(§2) Each of the present compounds was orally administered to mice (one group consisting of five female ICR mice of 6-week-old) for two consecutive days at a dose of 500 mg/kg/day.
(§3) Before and on the first day after the administration, feces of each mouse was collected and diluted with an anerobic diluent (phosphoric buffer solution) of 100 times volume and ground. 0.1 ml of the diluted and ground feces was smeared on each culture medium shown in Table 1 and cultured aerobically or anaerobically (according to the anaerobic glove box method) under each condition shown in Table 1.
BS agar anaerobic, 37° C., five

[1] = test system: Lactobacillus acidophilus; assay: Effect on intestinal bacterial colonies, L. acidophilus count in feces; format: in vivo; conditions: female ICR mice, oral 500 mg/kg/day for two days, first day after administration; before administration 9.0
Experimental: as §1, §2, §3
Lactobacillus acidophilus
LBS agar anaerobic, 37° C., five

Escherichia coli = assay: Effect on intestinal bacterial colonies, E. coli count in feces; format: in vivo; conditions: female ICR mice, oral 500 mg/kg/day for two days, first day after administration; before administration 6.4
Experimental: as §1, §2, §3
DHL agar aerobic, 37° C., one day

Pseudomonas aeruginosa = assay: Effect on intestinal bacterial colonies, Ps. aeruginosa count in feces; format: in vivo; conditions: female ICR mice, oral 500 mg/kg/day for two days, first day after administration; before administration <3.0
Experimental: as §1, §2, §3
NAC agar aerobic, 37° C., one day

[2] = test system: Escherichia coli IFO 12734; assay: Antibacterial activity (MIC), agar plate, E. coli; format: cell-based; conditions: E. coli IFO 12734, Mueller-Hinton agar, 37° C., 18 to 24 hours; unit assumed
Experimental: (§4) Antibacterial activity of the present compounds was examined as follows.
(§5) Antibacterial activity of each of the present compounds was examined against the following two bacteria according to the standard method of Japan Society of Chemotherapy:
Escherichia coli IFO 12734 and
(§6) Each bacterial strain was inoculated into the Mueller-Hinton's culture medium and cultured at 37° C. for 18 to 48 hours. The culture medium was diluted so as to contain 1×10^6 cells of the bacteria per one ml, and the obtained medium was used as the bacterial specimen.
(§7) Agar plates were prepared by adding one part by weight of each solution of the present compounds having a predetermined concentration to nine parts by weight of Mueller-Hinton's culture medium.
(§8) A loopful amount of the bacterial specimen prepared above was smeared to make a streak of about 2 cm on each agar plate and cultured at 37° C. for 18 to 24 hours. The minimum concentration for completely inhibiting proliferation of the bacteria (referred as MIC) was determined.

Bacteroides = assay: Effect on intestinal bacterial colonies, Bacteroides count in feces; format: in vivo; conditions: female ICR mice, oral 500 mg/kg/day for two days, first day after administration; before administration 8.3
Experimental: as §1, §2, §3
Bacteroides NBGT agar anaerobic, 37° C., five

Streptococcus spp. = assay: Effect on intestinal bacterial colonies, Streptococcus count in feces; format: in vivo; conditions: female ICR mice, oral 500 mg/kg/day for two days, first day after administration; before administration 6.8
Experimental: as §1, §2, §3
TATAC agar aerobic, 37° C., one day

[3] = test system: Staphylococcus aureus IAM 1011; assay: Activation by rat liver homogenate (S-9 mix), penicillin cup proliferation-inhibiting circle; format: cell-based; conditions: compound solution 100 μg/ml, ratio of circle diameter to conventional penicillin antibiotic
Experimental: As an enzyme for activating metabolism, a rat liver homogenate (S-9, manufactured by Oriental Yeast Company, Japan) was used in the following composition per one ml (hereinafter referred to as S-9 mix).
0.1 ml of each solution of the present compounds at a concentration of 100 μg/ml was mixed with 0.9 ml of S-9 mix or 0.9 ml of 0.1M phosphoric buffer solution (as a control) and the obtained mixture was incubated at 37° C. for 20 min with shaking.
Staphylococcus aureus IAM 1011 was inoculated into a Mueller-Hinton's culture medium and cultured at 37° C. for 18 hours. The culture medium was adjusted to a cell concentration of 1×10^8 per one ml and mixed with 50 times by volume of Mueller-Hinton's agar culture medium to obtain an agar plate.
A penicillin cup of 8 mm in diameter was placed on the agar plate prepared above, and into the cup 0.1 ml of the mixture was introduced and allowed to stand at 4° C. for 2 hours and then cultured at 37° C. for 18 hours to measure the diameter of a circle in which the proliferation of bacteria was inhibited (proliferation-inhibiting circle). In Table 4, the proliferation-inhibitingindex is shown with the ratio (%) of the diameter of the proliferation-inhibiting circle obtained by using each of the present compounds to that obtained by using the comparative compound (conventionalpenicillin antibiotic).

[4] = test system: Staphylococcus aureus IAM 1011; assay: Antibacterial activity (MIC), agar plate, Staph. aureus; format: cell-based; conditions: Staph. aureus IAM 1011, Mueller-Hinton agar, 37° C., 18 to 24 hours; unit assumed
Experimental: as §4, §5
Staphylococcus aureus IAM 1011
as §6, §7, §8

- MIC, E. coli [2]: 6.25 µg/mL
- MIC, Staph. aureus [4]: 0.1 µg/mL
Structure (SMILES): CC1(C)S[C@@H]2[C@H](NC(=O)C(N=Cc3cc(Cl)ccc3O)c3ccccc3)C(=O)N2[C@H]1C(=O)O (stereo partly shown) [Example 5, sodium 6-(5-chlorosalicylaldehydeiminophenylglycino)penicillanate]
- Logarithmic value of the number of bacterial cells per one gram of feces, L. bifidus (Lactobacillus bifidus): 8.7 logarithmic value; cells per o
- Logarithmic value of the number of bacterial cells per one gram of feces, L. acidophilus [1]: 8.8 logarithmic value; cells per o
- Logarithmic value of the number of bacterial cells per one gram of feces, E. coli (Escherichia coli): 6.5 logarithmic value; cells per o
- Logarithmic value of the number of bacterial cells per one gram of feces, Ps. aeruginosa (Pseudomonas aeruginosa): 3.3 logarithmic value; cells per o
- Logarithmic value of the number of bacterial cells per one gram of feces, Bacteroides (Bacteroides): 8.0 logarithmic value; cells per o
- Logarithmic value of the number of bacterial cells per one gram of feces, Strept. spp. (Streptococcus spp.): 6.6 logarithmic value; cells per o
- Proliferation-inhibiting index (%), after adding S-9 mix ([3]; incubated with S-9 mix 37° C., 20 min): +++ (66-100)
- Proliferation-inhibiting index (%), before adding S-9 mix ([3]; phosphoric buffer control without S-9): ++ (33-66)
